Reference: article PMC2792877 (Biochemistry, 2008)

Target: pa-FPR (Pseudomonas aeruginosa, UniProt Q9HYK7)
Experiment: 1H-15N HSQC NMR titration, […] fit
Assay type: binding

Sequence of pa-FPR (Q9HYK7 whole entry): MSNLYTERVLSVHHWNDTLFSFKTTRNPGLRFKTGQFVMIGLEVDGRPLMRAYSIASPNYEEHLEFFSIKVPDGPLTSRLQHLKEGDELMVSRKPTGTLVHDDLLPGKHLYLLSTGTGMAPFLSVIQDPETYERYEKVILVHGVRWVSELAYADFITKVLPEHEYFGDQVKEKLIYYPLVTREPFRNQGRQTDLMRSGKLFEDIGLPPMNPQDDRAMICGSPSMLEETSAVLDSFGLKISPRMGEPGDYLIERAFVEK

Question: For `NC(=O)c1ccc[n+]([C@@H]2O[C@H](COP(=O)(O)OP(=O)(O)OC[C@H]3O[C@@H](n4cnc5c(N)ncnc54)[C@H](OP(=O)(O)O)[C@@H]3O)[C@@H](O)[C@H]2O)c1` [NADP^+], which Kd is on record?
Answer: 24 µM
